Assay results: patent US10941174B2, “Non-caloric sweetener” (Conagen Inc., priority 2014, dated 2021)

Assays:
[1] = Solubility in water of Reb D3 compared to Reb D; assay type: physicochemical
Source text: In this Example, the solubility of Reb D3 was compared to Reb D.

[2] = Sensory evaluation (taste test) of Reb D3 against sucrose controls by a panel of nine volunteers; assay type: in vivo, human; details: for overall % sweetness equivalence (SE) average: room temperature, vs 1.0%, 3.0%, 6.0% sucrose (w/v), nine volunteers
Protocol: In this Example, a taste test was conducted on Reb D3.
Sensory evaluation of Reb D3 was performed using sucrose as a control. The sucrose sample purchased from Sigma-Aldrich and prepared control samples at three different concentrations of 1.0%, 3.0%, and 6.0% sucrose in bottled water (w/v) at room temperature. The steviol glycoside Reb D3 at 300, and 600 ppm for sensory evaluation was prepared by adding corresponding mass into a 1000 mL of bottled water. The mixture was stirred at room temperature and the steviol glycoside sample was then evaluated against several control sucrose samples at 1.0%, 3.0%, and 6.0% by a panel of nine volunteers.

[3] = background statement; cited from earlier work

For `C=C1C[C@@]23CC[C@H]4[C@@](C)(CCC[C@@]4(C)C(=O)O[C@@H]4O[C@H](CO)[C@@H](O)[C@H](O)[C@H]4O[C@@H]4O[C@H](CO)[C@@H](O)[C@H](O)[C@H]4O)[C@@H]2CC[C@]1(O[C@@H]1O[C@H](CO)[C@@H](O)[C@H](O[C@@H]2O[C@H](CO)[C@@H](O)[C@H](O)[C@H]2O)[C@H]1O[C@@H]1O[C@H](CO)[C@@H](O)[C@H](O)[C@H]1O)C3` [Reb D, Rebaudioside D], the “dissolution in water when heated” value ([1]; 0.5 mM, 1 mM, 1.5 mM, 2 mM, 5 mM and 10 mM, heated at 30° C. for 72 hours) was “did not dissolve” and the “concentration that totally dissolved in water” value ([1]; tested 0.25-10 mM in water) was 250 µM.

In the case of `C=C1C[C@@]23CCC4[C@](C)(C(=O)OC5OC(CO)C(O)C(O)C5OC5OC(CO)C(O)C(O)C5O)CCC[C@@]4(C)[C@@H]2CCC1(OC1OC(COC2OC(CO)C(O)C(O)C2O)C(O)C(O)C1OC1OC(CO)C(O)C(O)C1O)C3` (stereo partly drawn) [Reb D3, 13-[(2-O-β-D-glucopyranosyl-6-O-β-D-glucopyranosyl-β-D-glucopyranosyl)oxy] ent-kaur-16-en-19-oic acid-(2-O-β-D-glucopyranosyl-β-D-glucopyranosyl) ester], the “solubility in water compared with Reb D” value [1] is reported as “higher solubility in water than does Reb D”, the dissolution in water ([1]; solutions of 0.25 mM, 0.5 mM, 1 mM, 1.5 mM, 2 mM, 5 mM and 10 mM in water) is reported as “completely dissolved in water immediately” and the “overall % sweetness equivalence (SE) average” value ([2]; 300 ppm in bottled water) is reported as “about 2.4%”. The “overall % sweetness equivalence (SE) average” value ([2]; 600 ppm in bottled water) was roughly 5.4% and the “times sweeter to sucrose” value ([2]; from SE at 300 and 600 ppm) was 80-90 times.

In the case of `C=C1C[C@@]23CC[C@H]4[C@@](C)(CCC[C@@]4(C)C(=O)O[C@@H]4O[C@H](CO)[C@@H](O)[C@H](O)[C@H]4O)[C@@H]2CC[C@]1(O[C@@H]1O[C@H](CO)[C@@H](O)[C@H](O)[C@H]1O[C@@H]1O[C@H](CO)[C@@H](O)[C@H](O)[C@H]1O)C3` [Stevioside], the after-taste [3] is given as “bitter after-taste” and the “times sweeter than sucrose” value [3] is given as 100-150 times.

For `C=C1C[C@@]23CC[C@H]4[C@@](C)(CCC[C@@]4(C)C(=O)O[C@@H]4O[C@H](CO)[C@@H](O)[C@H](O)[C@H]4O)[C@@H]2CC[C@]1(O[C@@H]1O[C@H](CO)[C@@H](O)[C@H](O[C@@H]2O[C@H](CO)[C@@H](O)[C@H](O)[C@H]2O)[C@H]1O[C@@H]1O[C@@H](C)[C@H](O)[C@@H](O)[C@H]1O)C3` [Rebaudioside C], the “times sweeter than sucrose” value [3] is given as 40-60 times.

In the case of `C=C1C[C@@]23CCC4[C@](C)(C(=O)OC5OC(CO)C(O)C(O)C5OC5OC(CO)C(O)C(O)C5O)CCC[C@@]4(C)[C@@H]2CCC1(OC1OC(CO)C(O)C(O)C1OC1OC(CO)C(O)C(O)C1O)C3` (stereo partly shown) [rebaudioside E, Rebaudioside E], the after-taste [3] is given as “less of an after-taste than stevioside”.

For `C=C1C[C@@]23CC[C@H]4[C@@](C)(CCC[C@@]4(C)C(=O)O[C@@H]4O[C@H](CO)[C@@H](O)[C@H](O)[C@H]4O)[C@@H]2CC[C@]1(O[C@@H]1O[C@H](CO)[C@@H](O)[C@H](O)[C@H]1O[C@@H]1O[C@@H](C)[C@H](O)[C@@H](O)[C@H]1O)C3` [Dulcoside A], the “times sweeter than sucrose” value [3] is given as “about 30 times”.

In the case of `C=C1C[C@@]23CC[C@H]4[C@@](C)(CCC[C@@]4(C)C(=O)O[C@@H]4O[C@H](CO)[C@@H](O)[C@H](O)[C@H]4O)[C@@H]2CC[C@]1(O[C@@H]1O[C@H](CO)[C@@H](O)[C@H](O[C@@H]2O[C@H](CO)[C@@H](O)[C@H](O)[C@H]2O)[C@H]1O[C@@H]1O[C@H](CO)[C@@H](O)[C@H](O)[C@H]1O)C3` [Rebaudioside A], the after-taste [3] is given as “less of an after-taste than stevioside”.
